Results: patent publication US10981932B2, “Macrocyclic indole derivatives” (Bayer Aktiengesellschaft, priority 2016, dated 2021)
Structures can show the parent of a compound that is named as a salt.

Tests used:
SUDHL10 [1] = assay: Induction of caspase-3/7 activity (Caspase-Glo 3/7), SUDHL10; assay type: cell-based; details: caspase-3/7 induction, SUDHL10 cells, 3 h treatment, median
Summary of the method: (§1)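 Caspase-Glo 3/7 luminescence, 3 h compound exposure, 37 °C, humidified. Minus medium-only blank. EC50 fit: C0=1, plateau = reference max induction.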

SUDHL5 [2] = assay: Induction of caspase-3/7 activity (Caspase-Glo 3/7), SUDHL5; assay type: cell-based; details: caspase-3/7 induction, SUDHL5 cells, 3 h treatment, median
Summary of the method: as §1

SUDHL5 [3] = assay: Induction of cytotoxicity (CellTiter-Glo, 5 h), SUDHL5
BCL-XL = target: T1, BCL-XL (Homo sapiens, UniProt Q07817); assay: Protein-protein interaction assay BCL-XL/Bad BH3 peptide (BCL-XL assay), TR-FRET; assay type: binding; details: His-BCL-XL / Bad BH3-derived peptide
T1 construct: BCL-XL (amino acids 1-212, C-terminal fused to a hexahistidine (6×His) tag); purchased BPS Bioscience (San Diego, Calif., USA); host or cells: E. coli
T1 sequence (Q07817 1-212): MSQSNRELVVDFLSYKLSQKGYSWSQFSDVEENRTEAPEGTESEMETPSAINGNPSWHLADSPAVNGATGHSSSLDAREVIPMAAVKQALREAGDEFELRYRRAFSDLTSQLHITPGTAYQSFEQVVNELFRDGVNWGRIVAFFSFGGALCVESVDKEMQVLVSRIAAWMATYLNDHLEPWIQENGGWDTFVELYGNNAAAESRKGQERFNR
Method: Protein-Protein Interaction Assay: BCL-XL/Bad BH3 Peptide (BCL-XL Assay)
The dose-dependent inhibition by the compounds described in this invention of the interaction between […] and the BH3 domain of Bad (both human) was determined using a steady state binding competition assay with time-resolved fluorescence energy transfer (TR-FRET) readout. For that purpose BCL-2 (amino acids 1-211, C-terminal fused to a hexahistidine (6×His) tag (SEQ ID NO: 3) and a synthetic Bad BH3-derived peptide of sequence Biotin-PEG2-PEG2-NLWAAQRYGRELRR-NIe-SDEFVDSFKK-amide (SEQ ID NO: 2) served as protein receptor and tracer ligand respectively. The recombinant BCL-2 protein (expressed in E. coli) was purchased from BPS Bioscience (San Diego, Calif., USA). The Bad BH3-derived peptide can be obtained from e.g. Biosyntan (Berlin, Germany).
In the assay 11 different concentrations of each compound (0.1 nM, 0.33 nM, 1.1 nM, 3.8 nM, 13 nM, 44 nM, 0.15 μM, 0.51 μM, 1.7 μM, 5.9 μM and 20 μM) were typically measured as duplicates in the same microtiter plate. For that, 100-fold concentrated DMSO solutions were prepared by serial dilutions (1:3.4) of a 2 mM stock solution in a clear, 384-well microtiter plate (Greiner Bio-One, Frickenhausen, Germany). From there, 50 nl were transferred in a dark test plate (Greiner Bio-One. Frickenhausen, Germany). The assay was initiated by addition of 2 μl of a 2,5-fold concentrated Hs-BCL-XL solution (usually for a 1 nM end concentration in 5 μl reaction volume) in aqueous assay buffer [50 mM Tris/HCl pH 7, 100 mM sodium chloride (NaCl), 50 mM potassium fluoride (KF), 0.005% Tween-20, 2 mM DTT, 0.1% bovine gamma globulin (BGG)] to the compounds in the assay plate. This was followed by a 10-minute incubation step at 22° C. for pre-equilibration of the putative complex between His-BCL-XL and the compounds.
The mixture was incubated in the dark for one hour at 22° C. and then overnight at 4° C. The formation of BCL-XL/Bad complexes was determined by measuring the resonance energy transfer of the anti-His- Eu-cryptate antibody to the streptavidin-XL665 present in the reaction. For that purpose, the fluorescence emission at 620 nm and 665 nm after excitation at 330-350 nm was measured in a TR-FRET measuring instrument, for instance a Rubystar or a Pherastar (both from BMG Lab Technologies, Offenburg, Germany) or a Viewlux (Perkin-Elmer). The ratio of the emission at 665 nm and at 622 nm was used as indicator of the amount of BCL-XL/Bad complexes present.
The resulting data (ratio) were normalized, taking 0% inhibition as the mean value of control measurements (usually 32 data points) where all reagents were included. In this case 50 nl DMSO were used instead of compounds. A 100% inhibition corresponded to the mean value of control measurements (usually 32 data points) where all reagents except BCL-XL were included. IC50 values were determined by regression analysis based on a 4 parameter equation (minimum, maximum, IC50, Hill; Y=Max+(Min−Max)/(1+(X/IC50)^Hill) using the Screener Software (Genedata).

SUDHL5 [4] = assay: Anti-proliferative effect (CellTiter-Glo, 72 h), SUDHL5; assay type: cell-based; details: SUDHL5 cells, antiproliferation, 72 h incubation, median, read-out: Antiproli SUDHL5 [M] (median)
Summary of the method: (§2)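 Viable cells quantified with CellTiter-Glo after 72 h at 37 °C; rim wells excluded; day 0 plate as baseline.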

SUDHL10 [5] = assay: Induction of cytotoxicity (CellTiter-Glo, 5 h), SUDHL10
SUDHL10 [6] = assay: Anti-proliferative effect (CellTiter-Glo, 72 h), SUDHL10; assay type: cell-based; details: SUDHL10 cells, antiproliferation, 72 h incubation, median, read-out: Antiproli SUDHL10 [M] (median)
Summary of the method: as §2

[7] = read-out: Cytotox SUDHL5 [M] (median), SUDHL5 cells, cytotoxicity induction, CellTiter-Glo, 5 h incubation, median
[8] = read-out: Cytotox SUDHL10 [M] (median), SUDHL10 cells, cytotoxicity induction, CellTiter-Glo, 5 h incubation, median
[9] = Homo sapiens, SU-DHL-5, 5 h, read-out: Cytotox SUDHL5 [M] (median), SUDHL5 cells, cytotoxicity induction, CellTiter-Glo, 5 h incubation, median
[10] = Homo sapiens, SU-DHL10, 5 h, read-out: Cytotox SUDHL10 [M] (median), SUDHL10 cells, cytotoxicity induction, CellTiter-Glo, 5 h incubation, median

Row | Compound | EC50 (SUDHL10 [1]) | EC50 (SUDHL5 [2]) | IC50 (SUDHL5 [3]; [7]) | IC50 (BCL-XL) | IC50 (SUDHL5 [4]) | IC50 (SUDHL10 [5]; [8]) | IC50 (SUDHL10 [6]; Homo sapiens, SU-DHL10, 72 h) | EC50 (SUDHL10 [1]; Homo sapiens, SU-DHL10, 3 h) | EC50 (SUDHL5 [2]; Homo sapiens, SU-DHL-5, 3 h) | IC50 (SUDHL5 [3]; [9]) | IC50 (SUDHL5 [4]; Homo sapiens, SU-DHL-5, 72 h) | IC50 (SUDHL10 [5]; [10]) | IC50 (SUDHL10 [6])
1 | CCc1c2c(nn1C)COCCCCn1c(C(=O)O)c(CCCOc3cccc4ccccc34)c3ccc(C)c-2c31 (single isomer, unassigned; enantiomer 1) [Example 154, 3-Ethyl-2,4-dimethyl-7-[3-(1-naphthyloxy)propyl]-2,10,11,12,13,15-hexahydropyrazolo[4′,3′:9,10][1,6]oxazacycloundecino[8,7,6-hi]indole-8-carboxylic acid-N-ethylethanamine Salt (Enantiomer 1)] | 1.7 µM | 0.661 µM | 1.08e-06 M | > 20 µM | 2.26e-06 M | 2.03e-06 M | 4.11e-06 M | – | – | – | – | – | –
2 | COCCn1nc2c(c1CN1CCOCC1)-c1cccc3c(CCCOc4cccc5ccccc45)c(C(=O)O)n(c13)CCCN(C)C2 (single isomer, unassigned; enantiomer 1) [Example 057, 10-(2-methoxyethyl)-7-methyl-11-(morpholin-4-ylmethyl)-1-[3-(naphthalen-1-yloxy)propyl]-4,5,6,7,8,10-hexahydropyrazolo[3′,4′:7,8][1,5]diazecino[9,10,1-hi]indole-2-carboxylic Acid (Enantiomer 1)] | – | – | – | > 20 µM | – | – | 1.21e-05 M | 24.7 µM | 27.9 µM | 2.5e-05 M | 1.04e-05 M | 2.39e-05 M | –
3 | Cc1c2c(nn1C1CC1)COCCCCn1c(C(=O)O)c(CCCOc3cccc4ccccc34)c3cccc-2c31 (single isomer, unassigned; enantiomer 1) [Example 093, 2-cyclopropyl-3-methyl-7-[3-(naphthalen-1-yloxy)propyl]-2,10,11,12,13,15-hexahydropyrazolo[4′,3′:9,10][1,6]oxazacycloundecino[8,7,6-hi]indole-8-carboxylic acid-N-ethylethanamine Salt (Enantiomer 1)] | 6.64 µM | 2.83 µM | 2.1e-06 M | > 20 µM | 3.38e-06 M | 7.2e-06 M | 1.03e-05 M | – | – | – | – | – | –
4 | Cc1ccc2c(CCCOc3cccc4ccccc34)c(C(=O)O)n3c2c1-c1c(nn(C)c1C)CN(C)CCC3 (single isomer, unassigned; enantiomer 2) [Example 074, 7,10,11,12-tetramethyl-1-[3-(naphthalen-1-yloxy)propyl]-4,5,6,7,8,10-hexahydropyrazolo[3′,4′:7,8][1,5]diazecino[9,10,1-hi]indole-2-carboxylic Acid (Enantiomer 2)] | > 33 µM | > 33 µM | 1.2e-05 M | > 20 µM | 1.14e-05 M | 1.17e-05 M | – | – | – | – | – | – | 1.26e-05 M
5 | Cc1nn(C)c2c1-c1cccc3c(CCCOc4cccc5ccccc45)c(C(=O)O)n(c13)CCCN(C)C2 (single isomer, unassigned; enantiomer 1) [Example 1-31, 7,9,11-trimethyl-1-[3-(naphthalen-1-yloxy)propyl]-4,5,6,7,8,9-hexahydropyrazolo[3′,4′:7,8][1,5]diazecino[9,10,1-hi]indole-2-carboxylic Acid-N-ethylethanamine Salt (Enantiomer 1)] | 7.27 µM | 4.33 µM | 4.6e-06 M | > 20 µM | 3.12e-06 M | 1.61e-05 M | – | – | – | – | – | – | 4.55e-06 M
6 | Cc1ccc2c(CCCOc3cccc4c3CCCC4)c(C(=O)O)n3c2c1-c1c(C)nn(C)c1COCCCC3 (racemic) [Example 039, (rac)-1,3,4-trimethyl-7-[3-(5,6,7,8-tetrahydronaphthalen-1-yloxy)propyl]-110,11,12,13,15-hexahydropyrazolo[4′3′:9,10][1,6]oxazacycloundecino[8,7,6-hi]indole-8-carboxylic Acid] | – | – | – | > 20 µM | – | – | 1.3e-05 M | 24.8 µM | 7.47 µM | 8.59e-06 M | 1.11e-05 M | 2.97e-05 M | –
7 | Cn1nc(COc2ccc(N3CCN(S(=O)(=O)C4CC4)CC3)cc2)c2c1COCCCCn1c(C(=O)O)c(CCCOc3cccc4ccccc34)c3cccc-2c31 (single isomer, unassigned; enantiomer 2) [Example 1-13, 3-({4-[4-(cyclopropylsulfonyl)piperazin-1-yl]phenoxy}methyl)-1-methyl-7-[3-(naphthalen-1-yloxy)propyl]-1,10,11,12,13,15-hexahydropyrazolo[4′,3′:9,10][1,6]oxazacycloundecino[8,7,6-hi]indole-8-carboxylic Acid (Enantiomer 2)] | 0.614 µM | 0.324 µM | 4.1e-07 M | > 20 µM | 7.58e-07 M | 4.36e-07 M | – | – | – | – | – | – | 1.38e-06 M
8 | Cc1nn(C)c2c1-c1cccc3c(CCCOc4ccc(F)c5ccccc45)c(C(=O)O)n(c13)CCCCOC2 (single isomer, unassigned; enantiomer 2) [Example 023, 7-{3-[(4-fluoronaphthalen-1-yl)oxy]propyl}-1,3-dimethyl-1,10,11,12,13,15-hexahydropyrazolo[4′3′:9,10][1,6]oxazacycloundecino[8,7,6-hi]indole-8-carboxylic acid-N-ethylethanamine Salt (Enantiomer 2)] | 7.46 µM | 2.15 µM | 1.84e-06 M | > 20 µM | 4.32e-06 M | 5.85e-06 M | – | – | – | – | – | – | 9.57e-06 M
9 | CN1CCCn2c(C(=O)O)c(CCCOc3cccc4ccccc34)c3cccc(c32)-c2c(COc3ccc(N4CCN(S(=O)(=O)N(C)C)CC4)cc3)nn(C)c2C1 (single isomer, unassigned; enantiomer 1) [Example 1-15, (+)-11-({4-[4-(dimethylsulfamoyl)piperazin-1-yl]phenoxy}methyl)-7,9-dimethyl-1-[3-(naphthalen-1-yloxy)propyl]-4,5,6,7,8,9-hexahydropyrazolo[3′,4′:7,8][1,5]diazecino[9,10,1-hi]indole-2-carboxylic Acid (Enantiomer 1)] | 1.82 µM | 1.17 µM | 1.38e-06 M | > 20 µM | 1.36e-06 M | 1.94e-06 M | – | – | – | – | – | – | 1.56e-06 M
